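Compound exposure: 48 hours, 5 concentrations, 96-well plates. GI50 = concentration required for 50% inhibition of growth.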 The source made the active and inactive calls. No stated cut-off is given here; in the data, active = GI50 up to about 1.1 µM and inactive = higher.
Legend:
Assay in all cases: NCI anticancer screen, dose series, 48 h
786-0 = system: 786-0
A498 = system: A498
A549 = system: A549
ACHN = system: ACHN
CCRF-CEM = system: CCRF-CEM
DU-145 = system: DU-145
EKVX = system: EKVX
HCC 2998 = system: HCC 2998
HCT-116 = system: HCT-116
HCT-15 = system: HCT-15
HL-60 = system: HL-60
HOP-62 = system: HOP-62
HOP-92 = system: HOP-92
HT-29 = system: HT-29
Hs-578T = system: Hs-578T
IGROV-1 = system: IGROV-1
K562 = system: K562
LOX IMVI = system: LOX IMVI
MCF7 = system: MCF7
MDA-MB-435 = system: MDA-MB-435
MDA-N = system: MDA-N
MOLT-4 = system: MOLT-4
Malme-3M = system: Malme-3M
NCI-H226 = system: NCI-H226
NCI-H23 = system: NCI-H23
NCI-H460 = system: NCI-H460
NCI-H522 = system: NCI-H522
NCI/ADR-RES = system: NCI/ADR-RES
OVCAR-3 = system: OVCAR-3
OVCAR-4 = system: OVCAR-4
OVCAR-5 = system: OVCAR-5
OVCAR-8 = system: OVCAR-8
PC-3 = system: PC-3
RPMI-8226 = system: RPMI-8226
RXF 393 = system: RXF 393
SF-268 = system: SF-268
SF-295 = system: SF-295
SF-539 = system: SF-539
SK-MEL-28 = system: SK-MEL-28
SK-MEL-5 = system: SK-MEL-5
SN12C = system: SN12C
SNB-19 = system: SNB-19
SNB-75 = system: SNB-75
SR = system: SR
SW-620 = system: SW-620
TK-10 = system: TK-10
U-251 = system: U-251
UACC-257 = system: UACC-257
CAKI-1 = system: CAKI-1
COLO 205 = system: COLO 205
KM12 = system: KM12
M14 = system: M14
MDA-MB-231 = system: MDA-MB-231
SK-MEL-2 = system: SK-MEL-2
T47D = system: T47D
UACC-62 = system: UACC-62
UO-31 = system: UO-31
SK-OV-3 = system: SK-OV-3

`O=[N+]([O-])c1cccnc1NCC1(CO)CCCC1` was tested, and the GI50 (786-0) was 26.7 µM (inactive), the GI50 (A498) was 39.6 µM (inactive) and the GI50 (A549) was 35.2 µM (inactive). For the same compound, the GI50 (ACHN) was 27 µM (inactive), the GI50 (CCRF-CEM) was 29.4 µM (inactive) and the GI50 (DU-145) was 36 µM (inactive). For the same compound, the GI50 (EKVX) was 27.8 µM (inactive), the GI50 (HCC 2998) was 18.8 µM (inactive) and the GI50 (HCT-116) was 26 µM (inactive). For the same compound, the GI50 (HCT-15) was 18.5 µM, the GI50 (HL-60) was 22.4 µM (inactive) and the GI50 (HOP-62) was 33 µM (inactive). For the same compound, the GI50 (HOP-92) was 23.4 µM (inactive), the GI50 (HT-29) was 19.3 µM (inactive) and the GI50 (Hs-578T) was 24.5 µM (inactive). The GI50 (IGROV-1) was 18.3 µM (inactive), the GI50 (K562) was 18.5 µM (inactive) and the GI50 (LOX IMVI) was 16.7 µM (inactive). For the same compound, the GI50 (MCF7) was 42.7 µM (inactive), the GI50 (MDA-MB-435) was 22.4 µM (inactive) and the GI50 (MDA-N) was 21.4 µM (inactive). For the same compound, the GI50 (MOLT-4) was 15.6 µM (inactive), the GI50 (Malme-3M) was 20.7 µM (inactive) and the GI50 (NCI-H226) was 25.6 µM (inactive). The GI50 (NCI-H23) was 32.6 µM (inactive), the GI50 (NCI-H460) was 22.5 µM (inactive) and the GI50 (NCI-H522) was 21.7 µM (inactive). The GI50 (NCI/ADR-RES) was 20 µM (inactive), the GI50 (OVCAR-3) was 19.8 µM (inactive) and the GI50 (OVCAR-4) was 36.5 µM (inactive). For the same compound, the GI50 (OVCAR-5) was 31.6 µM (inactive), the GI50 (OVCAR-8) was 19.4 µM (inactive) and the GI50 (PC-3) was 19.1 µM (inactive). The GI50 (RPMI-8226) was 20.2 µM (inactive), the GI50 (RXF 393) was > 10 µM (inactive) and the GI50 (SF-268) was 32.2 µM (inactive). The GI50 (SF-295) was 23.8 µM (inactive), the GI50 (SF-539) was 21.6 µM (inactive) and the GI50 (SK-MEL-28) was 23.2 µM (inactive). For the same compound, the GI50 (SK-MEL-5) was 17.1 µM (inactive), the GI50 (SN12C) was 22.3 µM (inactive) and the GI50 (SNB-19) was 56.4 µM (inactive). The GI50 (SNB-75) was 15.9 µM (inactive), the GI50 (SR) was 25.4 µM (inactive) and the GI50 (SW-620) was 25.7 µM (inactive). For the same compound, the GI50 (TK-10) was 27.2 µM (inactive), the GI50 (U-251) was 16.9 µM (inactive) and the GI50 (UACC-257) was 20.6 µM (inactive).
`N#C[BH2-][n+]1cn(C2CC(O)C(COP(=O)(O)OC3CC(n4c[n+]([BH2-]C#N)c5c(=O)[nH]c(N)nc54)OC3CO)O2)c2nc(N)[nH]c(=O)c21` (centres undefined) was tested, and the GI50 (786-0) was > 100 µM (inactive), the GI50 (A498) was > 100 µM (inactive) and the GI50 (A549) was > 100 µM (inactive). The GI50 (ACHN) was > 100 µM (inactive), the GI50 (CAKI-1) was > 100 µM (inactive) and the GI50 (CCRF-CEM) was > 100 µM (inactive). The GI50 (COLO 205) was > 100 µM (inactive), the GI50 (DU-145) was > 100 µM (inactive) and the GI50 (EKVX) was > 100 µM (inactive). For the same compound, the GI50 (HCC 2998) was > 100 µM (inactive), the GI50 (HCT-116) was > 100 µM (inactive) and the GI50 (HCT-15) was greater than 100 µM. For the same compound, the GI50 (HL-60) was > 100 µM (inactive), the GI50 (HOP-62) was > 100 µM (inactive) and the GI50 (HOP-92) was > 100 µM (inactive). The GI50 (HT-29) was > 100 µM (inactive), the GI50 (IGROV-1) was > 100 µM (inactive) and the GI50 (K562) was 10 µM (inactive). For the same compound, the GI50 (KM12) was > 100 µM (inactive), the GI50 (M14) was > 100 µM (inactive) and the GI50 (MCF7) was > 100 µM (inactive). For the same compound, the GI50 (MDA-MB-231) was > 100 µM (inactive), the GI50 (MDA-MB-435) was > 100 µM (inactive) and the GI50 (MDA-N) was > 100 µM (inactive). For the same compound, the GI50 (MOLT-4) was > 100 µM (inactive), the GI50 (Malme-3M) was > 100 µM (inactive) and the GI50 (NCI-H226) was > 100 µM (inactive). The GI50 (NCI-H23) was > 100 µM (inactive), the GI50 (NCI-H460) was > 100 µM (inactive) and the GI50 (NCI-H522) was > 100 µM (inactive). For the same compound, the GI50 (NCI/ADR-RES) was > 100 µM (inactive), the GI50 (OVCAR-3) was > 100 µM (inactive) and the GI50 (OVCAR-4) was > 100 µM (inactive). For the same compound, the GI50 (OVCAR-5) was > 100 µM (inactive), the GI50 (OVCAR-8) was > 100 µM (inactive) and the GI50 (PC-3) was > 100 µM (inactive). The GI50 (RPMI-8226) was > 100 µM (inactive), the GI50 (RXF 393) was > 100 µM (inactive) and the GI50 (SF-268) was > 100 µM (inactive). The GI50 (SF-295) was > 100 µM (inactive), the GI50 (SF-539) was > 100 µM (inactive) and the GI50 (SK-MEL-28) was > 100 µM (inactive). For the same compound, the GI50 (SK-MEL-2) was > 100 µM (inactive), the GI50 (SK-MEL-5) was > 100 µM (inactive) and the GI50 (SN12C) was > 100 µM (inactive). For the same compound, the GI50 (SNB-19) was > 100 µM (inactive), the GI50 (SNB-75) was > 100 µM (inactive) and the GI50 (SR) was > 100 µM (inactive). The GI50 (SW-620) was > 100 µM (inactive), the GI50 (T47D) was > 100 µM (inactive) and the GI50 (U-251) was > 100 µM (inactive). The GI50 (UACC-62) was > 100 µM (inactive) and the GI50 (UO-31) was > 100 µM (inactive).
With `O=C1C(Cl)=C(N2CCN(CCOCCO)CC2)C(=O)c2c(O)ccc(O)c21` the GI50 (A549) was 2.77 µM (inactive), the GI50 (DU-145) was 2.65 µM (inactive) and the GI50 (HCC 2998) was 3.28 µM (inactive). The GI50 (HCT-15) was 0.453 µM, the GI50 (HL-60) was 0.0272 µM (active) and the GI50 (HOP-92) was 0.422 µM (active). The GI50 (HT-29) was 0.64 µM (active), the GI50 (Hs-578T) was 2.1 µM (inactive) and the GI50 (K562) was 0.104 µM (active). The GI50 (MOLT-4) was 0.0869 µM (active), the GI50 (NCI-H226) was 1.75 µM (inactive) and the GI50 (NCI-H460) was 3.08 µM (inactive). The GI50 (OVCAR-5) was 2.38 µM (inactive), the GI50 (SF-539) was 1.66 µM (inactive) and the GI50 (SNB-75) was 1.77 µM (inactive). For the same compound, the GI50 (T47D) was 0.458 µM (active).
With `CCCCCOP(=O)(OCCCCC)C(NC(C)=O)(C(=O)OCC)C(F)(F)F` (centres undefined) the GI50 (A498) was > 100 µM (inactive), the GI50 (ACHN) was > 100 µM (inactive) and the GI50 (CCRF-CEM) was > 100 µM (inactive). The GI50 (DU-145) was > 100 µM (inactive), the GI50 (EKVX) was > 100 µM (inactive) and the GI50 (HCC 2998) was > 100 µM (inactive). The GI50 (HCT-116) was > 100 µM (inactive), the GI50 (HCT-15) was greater than 100 µM and the GI50 (HL-60) was > 100 µM (inactive). For the same compound, the GI50 (HOP-62) was > 100 µM (inactive), the GI50 (HT-29) was > 100 µM (inactive) and the GI50 (K562) was > 100 µM (inactive). The GI50 (M14) was > 100 µM (inactive), the GI50 (MCF7) was > 100 µM (inactive) and the GI50 (MDA-MB-231) was > 100 µM (inactive). The GI50 (MDA-MB-435) was > 100 µM (inactive), the GI50 (MDA-N) was > 100 µM (inactive) and the GI50 (MOLT-4) was > 100 µM (inactive). For the same compound, the GI50 (Malme-3M) was > 100 µM (inactive), the GI50 (NCI-H522) was > 100 µM (inactive) and the GI50 (RPMI-8226) was > 100 µM (inactive). For the same compound, the GI50 (SF-268) was > 100 µM (inactive), the GI50 (SF-539) was > 100 µM (inactive) and the GI50 (SK-MEL-28) was > 100 µM (inactive). The GI50 (SK-OV-3) was > 100 µM (inactive), the GI50 (SN12C) was > 100 µM (inactive) and the GI50 (SNB-75) was > 100 µM (inactive). For the same compound, the GI50 (SR) was > 100 µM (inactive), the GI50 (T47D) was > 100 µM (inactive) and the GI50 (U-251) was > 100 µM (inactive). The GI50 (UACC-62) was > 100 µM (inactive) and the GI50 (UO-31) was > 100 µM (inactive).

— ChEMBL document CHEMBL1201862, “PubChem BioAssay data set” (2004)
